Assay [1] concerns the target mTOR (Homo sapiens (Human), UniProt P42345). Description: mTOR kinase activity assay (phosphorylation status of mTOR substrate 4E-BP1; TR-FRET). The following applies: GFP-4E-BP1 substrate, 8 μM ATP. It is filed as biochemical. The method, then: mTOR Kinase Activity Assay
(Phosphorylation Status of mTOR Substrate 4E-BP1; TR-FRET)
The mTOR kinase TR-FRET assay utilizes a physiologically relevant protein substrate for mTOR (4E-BP1, labeled with an acceptor fluorophore (Green Fluorescent Protein) and paired with a corresponding Tb-labeled phospho-specific antibody.
The assay itself is divided into two phases: the reaction phase and the detection phase. In the reaction phase, all components required for the kinase reaction are added to the well, including the labeled protein substrate. The reaction is allowed to incubate for 60 minutes. After the reaction, EDTA is added to stop the kinase reaction, and terbium-labeled antibody is added to bind phosphorylated product. Because the terbium chelate is stable at the EDTA concentrations used to stop a kinase assay, the antibody and EDTA can be pre-mixed prior to addition to minimize pipetting steps. Binding of the terbium labeled antibody to the fluorophore-labeled phosphorylated product brings the terbium and GFP into proximity, resulting in an increase in TR-FRET. In the presence of an inhibitor, formation of phosphorylated product is reduced, and the TR-FRET value is decreased.
• GFP-4E-BP1 substrate; Invitrogen order no. PV4759 • Lanthascreen Tb-anti-p4E-BP1 (pThr46) Antibody Kit; Invitrogen order no. PV4758 • FRAP1 (mTOR) kinase; Invitrogen order no.
400 nM GFP-4E-BP1, 8 μM ATP, ˜150 ng/mL mTOR, 50 mM HEPES pH 7.5, 0.01% Polysorbate 20, 1 mM EGTA, 10 mM MnCl2, and variable amounts of test compounds.
Note: Thaw and keep mTOR, the substrate, ATP, and the antibody on ice prior to making working dilutions. Working dilutions of these components can be kept at room temperature for short periods of time the day of use. • 1. Add 2 ml of 5× Assay Buffer to 8 ml water to prepare 10 ml of 1× Assay Buffer, wherein the concentration of 1× Assay Buffer is 50 mM HEPES pH 7.5, 0.01% Polysorbate 20, 1 mM EGTA, and 10 mM MnCl2. • 2. Prepare Antibody/EDTA Solution by first adding 2.75 μl of Tb-anti p4E-BP1 Antibody to 2397 μl of LanthaScreen™ TR-FRET Dilution Buffer. Then, add 100 μl of 0.5 M EDTA. • 3. […] Then, add 1.6 μl of mTOR (0.45 mg/mL). • 4. Prepare ATP Solution by adding 3.2 μl of 10 mM ATP to 1997 μl of 1× Assay Buffer. Serial Dilution of Inhibitors (16 Point Curve)
Inhibitors are serially diluted in DMSO, then diluted to a 4× working concentration with 1× Assay Buffer. • 1. Dispense 40 μl of DMSO to two adjacent columns of a 96 well plate per compound (e.g. columns 1 and 2). • 2. Add 10 μl of inhibitor stock (10 mM) to the first well of the first column (A1) and mix. • 3. Remove 10 μl from A1 and transfer to the adjacent well in the next column (B1) and mix. • 4. Remove 10 μl from B1 and transfer to the next well in the first column (B2) and mix. • 5. […] Remove 4 μl of diluted compounds and add to 96 μl of 1× Assay Buffer in a 96-well plate making 4× compound dilutions. Kinase Reaction • 1. Add 2.5 μl of 4X compound dilutions to a 384-well plate. • 2. […] Preincubate for […] at RT (shaker). • 5. Add 5 μl of ATP Solution to all wells to start reactions. • 6. Shake the assay plate on a plate shaker for 30 seconds. • 7. Incubate the assay plate for one hour at room temperature (20-25° C.). Stop Step and Fluorescence Detection • 1. Add 10 μl of Antibody/EDTA Solution to each well in columns 1-9. • 2. Shake the assay plate on a plate shaker for 30 seconds. • 3. Incubate the assay plate for one hour at room temperature (20-25° C.). • 4. Measure the GFP (FRET) and terbium (reference) emission signals on a fluorescence plate reader (e.g. Perkin Elmer Envision). Data Analysis • 1. Calculate the emission ratio for each sample by dividing the GFP (FRET) signal by the terbium (reference) signal. • 2.

The target of assay [2] is PI3Kalpha (Homo sapiens (Human), UniProt P42336). Description: Inhibition of PI3Kalpha-induced PIP-2 phosphorylation (filter-binding assay). The assay is classed as biochemical. The settings on record: 33P-ATP. As for the experimental part:
Inhibition of PI3Kalpha-Induced PIP-2 Phosphorylation
Method Type: Filter-Binding-Assay
Aliquoted in desired amounts and stored at −80° C. Final assay concentration 25 ng/well.

Assay [3] deals with PC3 (human prostate carcinoma cell line) cells. Description: PC3 proliferation test. The following applies: PC-3, 72 h, 3 days incubation, DNA dye fluorescence. It is filed as cell-based.

PI3Kalpha, sequence (P42336 whole entry, species assumed): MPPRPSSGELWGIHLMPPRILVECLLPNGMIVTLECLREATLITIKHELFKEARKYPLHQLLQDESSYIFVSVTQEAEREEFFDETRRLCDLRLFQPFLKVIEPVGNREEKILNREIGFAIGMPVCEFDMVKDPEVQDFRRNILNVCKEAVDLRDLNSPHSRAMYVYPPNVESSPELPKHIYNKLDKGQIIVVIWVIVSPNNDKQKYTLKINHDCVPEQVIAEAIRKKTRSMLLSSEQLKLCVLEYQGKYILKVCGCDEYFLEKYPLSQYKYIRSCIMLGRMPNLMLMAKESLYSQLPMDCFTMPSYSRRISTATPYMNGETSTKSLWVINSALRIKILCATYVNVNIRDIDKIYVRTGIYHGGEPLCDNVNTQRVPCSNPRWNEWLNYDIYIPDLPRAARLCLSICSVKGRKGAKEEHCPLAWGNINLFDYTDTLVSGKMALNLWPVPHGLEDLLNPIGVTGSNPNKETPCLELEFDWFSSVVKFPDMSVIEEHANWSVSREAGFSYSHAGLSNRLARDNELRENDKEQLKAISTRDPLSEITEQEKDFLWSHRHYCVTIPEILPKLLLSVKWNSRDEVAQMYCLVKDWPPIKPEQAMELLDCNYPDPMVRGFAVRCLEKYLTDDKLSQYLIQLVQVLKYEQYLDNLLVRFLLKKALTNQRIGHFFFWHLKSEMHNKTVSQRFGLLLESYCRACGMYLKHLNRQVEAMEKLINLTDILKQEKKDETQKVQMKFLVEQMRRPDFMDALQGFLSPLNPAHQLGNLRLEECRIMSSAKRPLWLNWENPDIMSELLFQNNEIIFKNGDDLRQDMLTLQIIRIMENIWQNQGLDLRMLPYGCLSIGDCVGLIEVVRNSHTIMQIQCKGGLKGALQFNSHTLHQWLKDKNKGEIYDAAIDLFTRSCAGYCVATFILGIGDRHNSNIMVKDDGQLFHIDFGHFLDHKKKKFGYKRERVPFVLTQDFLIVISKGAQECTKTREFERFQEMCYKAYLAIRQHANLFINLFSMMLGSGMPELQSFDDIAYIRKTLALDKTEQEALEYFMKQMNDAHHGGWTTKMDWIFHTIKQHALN
PI3Kalpha, sequence (P27986 whole entry partner, species assumed): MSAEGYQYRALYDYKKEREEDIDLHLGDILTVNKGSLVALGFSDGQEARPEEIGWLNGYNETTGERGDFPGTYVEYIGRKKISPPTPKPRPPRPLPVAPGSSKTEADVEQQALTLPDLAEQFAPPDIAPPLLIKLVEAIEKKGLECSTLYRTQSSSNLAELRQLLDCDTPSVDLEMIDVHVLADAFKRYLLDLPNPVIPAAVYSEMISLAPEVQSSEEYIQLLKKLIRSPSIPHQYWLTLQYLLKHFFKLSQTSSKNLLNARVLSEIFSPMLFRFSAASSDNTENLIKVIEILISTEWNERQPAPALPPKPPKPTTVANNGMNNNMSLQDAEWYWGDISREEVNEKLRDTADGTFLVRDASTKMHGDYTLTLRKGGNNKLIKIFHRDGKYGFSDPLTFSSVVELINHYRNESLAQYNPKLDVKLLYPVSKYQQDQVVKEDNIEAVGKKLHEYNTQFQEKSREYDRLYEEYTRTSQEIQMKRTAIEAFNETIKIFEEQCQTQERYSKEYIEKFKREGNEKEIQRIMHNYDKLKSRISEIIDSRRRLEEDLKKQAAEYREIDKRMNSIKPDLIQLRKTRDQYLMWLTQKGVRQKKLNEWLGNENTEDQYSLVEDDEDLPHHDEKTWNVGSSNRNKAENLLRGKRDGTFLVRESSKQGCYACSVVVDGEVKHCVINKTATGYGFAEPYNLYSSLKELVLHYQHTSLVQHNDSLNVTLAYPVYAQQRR
mTOR, sequence (P42345 1360-2549): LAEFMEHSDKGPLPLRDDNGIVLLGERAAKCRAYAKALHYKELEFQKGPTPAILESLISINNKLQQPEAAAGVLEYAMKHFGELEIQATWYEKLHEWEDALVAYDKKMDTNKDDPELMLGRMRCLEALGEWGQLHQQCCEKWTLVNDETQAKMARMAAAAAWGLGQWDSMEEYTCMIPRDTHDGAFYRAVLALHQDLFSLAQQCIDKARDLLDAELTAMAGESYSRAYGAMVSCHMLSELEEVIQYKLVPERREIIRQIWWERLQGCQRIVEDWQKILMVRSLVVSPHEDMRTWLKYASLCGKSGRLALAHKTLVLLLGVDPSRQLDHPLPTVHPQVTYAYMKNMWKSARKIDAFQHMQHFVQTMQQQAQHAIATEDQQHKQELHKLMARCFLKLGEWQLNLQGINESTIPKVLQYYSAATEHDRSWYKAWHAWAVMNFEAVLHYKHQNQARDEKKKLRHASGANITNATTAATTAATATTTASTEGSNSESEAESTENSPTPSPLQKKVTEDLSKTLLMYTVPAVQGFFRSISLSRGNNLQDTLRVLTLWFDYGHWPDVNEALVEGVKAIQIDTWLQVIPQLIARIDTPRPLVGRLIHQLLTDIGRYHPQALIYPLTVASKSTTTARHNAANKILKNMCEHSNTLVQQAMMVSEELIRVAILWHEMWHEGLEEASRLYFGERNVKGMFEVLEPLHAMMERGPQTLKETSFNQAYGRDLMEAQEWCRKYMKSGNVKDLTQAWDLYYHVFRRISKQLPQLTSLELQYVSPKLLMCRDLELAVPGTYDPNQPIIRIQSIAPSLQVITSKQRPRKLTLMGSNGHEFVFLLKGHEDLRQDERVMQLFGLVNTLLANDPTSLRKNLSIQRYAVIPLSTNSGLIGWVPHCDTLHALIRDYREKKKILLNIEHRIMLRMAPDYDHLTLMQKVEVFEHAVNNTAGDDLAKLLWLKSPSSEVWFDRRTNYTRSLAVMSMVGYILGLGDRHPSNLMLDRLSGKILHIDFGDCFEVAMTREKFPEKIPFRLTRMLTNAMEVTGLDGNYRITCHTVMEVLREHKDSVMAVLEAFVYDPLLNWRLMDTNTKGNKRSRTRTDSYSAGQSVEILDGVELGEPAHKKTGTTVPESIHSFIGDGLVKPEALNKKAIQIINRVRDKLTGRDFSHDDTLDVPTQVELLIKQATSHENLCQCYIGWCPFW

The term IC50 denotes the concentration that inhibits the measured activity by half. Higher therefore signals a need for much substance. For orientation: EC50 means the midpoint of the concentration-response curve. A higher EC50 goes with weaker potency. The molecule `CCOC1CCN(c2ncnc(CC)c2C#Cc2ccc(C)nc2)CC1` [Example B-69] registered a 50% inhibitory concentration (IC50) in assay [1] of 0.168 µM. In assay [2], the “IC50 PI3Ka” value amounted to 0.099 µM. The same molecule gave an EC50 in assay [3] of 0.783 µM.
For `CCc1ncnc(N2CCN(C(C)=O)CC2)c1C#Cc1ccc(N)nc1` [Example B-40], in that order: 0.032 µM, 0.062 µM and 0.187 µM.
For `Cc1ncnc(N2CCC(CC(C)(C)O)CC2)c1C#Cc1ccc(N)nc1` [Example B-13], in that order: 0.018 µM, 0.029 µM and 0.051 µM.
Regarding `Cc1ncnc(N2CCN(C(=O)C3CCC3)CC2)c1C#Cc1ccc(N)nc1` [Example G-8], 0.064 µM corresponded to half-maximal inhibition in assay [1] (IC50). For the same molecule, the “IC50 PI3Ka” value in assay [2] worked out at 0.022 µM. It took 0.206 µM to reach a half-maximal effect in assay [3] (EC50).
In the case of `CCc1ncnc(N2CCC(F)(F)CC2)c1C#Cc1ccc(N)nc1` [Example B-42], the half-maximal inhibitory concentration (IC50) in assay [1] turned out to be 0.031 µM. The “IC50 PI3Ka” value in assay [2] amounted to 0.196 µM. This molecule displayed an EC50 in assay [3] of 0.105 µM.
For the molecule `Cc1ncnc(N2CCN(C(=O)c3ccno3)CC2)c1C#Cc1ccc(N)nc1` [Example G-9], the midpoint of inhibition in assay [1], the IC50, lay at 0.055 µM. Besides, in assay [2], the “IC50 PI3Ka” value came to 0.039 µM. In assay [3], this molecule showed an EC50 of 0.31 µM.
For `CCc1ncnc(N2CCN(C)CC2)c1C#Cc1ccc(N)nc1` [Example B-56], in that order: 0.057 µM, 1.551 µM and 0.268 µM.
For `CCc1ncnc(N2CCCC(CO)C2)c1C#Cc1ccc(N)nc1` (centres unmarked) [Example B-49], in that order: 0.028 µM, 0.073 µM and 0.124 µM.
As for `Cc1ncnc(N2CCC(CC(=O)N3CCN(C)CC3)CC2)c1C#Cc1ccc(N)nc1` [Example E-2], inhibition in assay [1] was half-maximal at 0.366 µM (IC50). Moreover, the “IC50 PI3Ka” value in assay [2] was determined as 0.096 µM.
Consider `CCc1ncnc(N2CCOCC2)c1C#Cc1ccc(N)nc1` [Example B-57], for which the IC50 in assay [1] worked out at 0.093 µM. Moreover, the “IC50 PI3Ka” value in assay [2] was 0.046 µM. The same molecule yielded an EC50 in assay [3] of 0.119 µM.
`CCN(C)C(=O)CC1CCN(c2ncnc(C)c2C#Cc2ccc(N)nc2)CC1` [Example E-7]: in assay [1], the half-inhibitory concentration (IC50) was 0.053 µM. In assay [2], the “IC50 PI3Ka” value turned out to be 0.044 µM. This molecule gave an EC50 in assay [3] of 0.266 µM.
`Cc1ncnc(N2CCC(CNC(=O)CN(C)C)CC2)c1C#Cc1ccc(N)nc1` [Example F-4] yielded a half-inhibitory concentration (IC50) in assay [1] of 0.457 µM. For the same molecule, in assay [2], the “IC50 PI3Ka” value stood at 0.301 µM.
With `CCc1ncnc(N2CCC(CO)CC2)c1C#Cc1ccc(N)nc1` [Example B-45], the half-inhibitory concentration (IC50) in assay [1] came to 0.01 µM. Also, the “IC50 PI3Ka” value in assay [2] is 0.058 µM. The EC50 in assay [3] is 0.046 µM.
For `CC(=O)NC1CCCN(c2ncnc(C)c2C#Cc2ccc(N)nc2)C1` (centres unmarked) [Example B-24] the same measures were 0.046 µM, 0.158 µM and 0.352 µM.
For `Cc1ncnc(N2CCC(CC(=O)N3CCOCC3)CC2)c1C#Cc1ccc(N)nc1` [Example E-6], in that order: 0.059 µM, 0.083 µM and 0.358 µM.
As for `CCc1ncnc(N2CCC(O)(CC)CC2)c1C#Cc1ccc(C)nc1` [Example B-33], 0.051 µM corresponded to half-maximal inhibition in assay [1] (IC50). Also, in assay [2], the “IC50 PI3Ka” value turned out to be 0.102 µM. Besides, in assay [3], a half-maximal effect (EC50) was put at 0.152 µM.
`CCc1ncnc(N2CCN(C(=O)N3CCOCC3)CC2)c1C#Cc1ccc(N)nc1` [Example H-16] had an IC50 in assay [1] of 0.022 µM. Further, the “IC50 PI3Ka” value in assay [2] was determined as 0.116 µM.
In assay [1], `CCc1ncnc(N2CCC3(CC2)OCCO3)c1C#Cc1ccc(N)nc1` [Example B-22] displayed an IC50 of 0.004 µM. The “IC50 PI3Ka” value in assay [2] came out at 0.057 µM. Moreover, the 50% effective concentration (EC50) in assay [3] was determined as 0.032 µM.
For the molecule `CCc1ncnc(N2CCN(CCN3CCOCC3)CC2)c1C#Cc1ccc(N)nc1` [Example H-9], in assay [1], the IC50 amounted to 1.57 µM. Moreover, the “IC50 PI3Ka” value in assay [2] amounted to 0.449 µM.
For `CCc1ncnc(N2CCNC(=O)C2)c1C#Cc1ccc(N)nc1` [Example H-4] the same measures were 0.045 µM and 0.058 µM.
Consider `Cc1ncnc(N2CCC(CC(=O)NCCN(C)C)CC2)c1C#Cc1ccc(N)nc1` [Example E-8], for which it took 0.261 µM to reach half-maximal inhibition in assay [1] (IC50). Besides, the “IC50 PI3Ka” value in assay [2] turned out to be 0.149 µM.
For `CCc1ncnc(N2CCc3ccccc3C2)c1C#Cc1ccc(N)nc1` [Example H-17] the same measures were 0.068 µM and 0.056 µM.
For `Cc1ncnc(N2CCC(CNC(=O)CC(C)C)CC2)c1C#Cc1ccc(N)nc1` [Example F-7] the same measures were 0.237 µM and 0.047 µM.
For `Cc1ncnc(N2CCC(CC(=O)N(C)CCN(C)C)CC2)c1C#Cc1ccc(N)nc1` [Example E-3] the same measures were 0.457 µM and 2.001 µM.
Consider `Cc1ncnc(N2CCC(C)(O)CC2)c1C#Cc1ccc(N)nc1` [Example B-23], for which, in assay [1], the half-maximal inhibitory concentration (IC50) came to 0.007 µM. The molecule further showed an EC50 in assay [3] of 0.019 µM.
On to `Cc1ncnc(N2CCC(=O)CC2)c1C#Cc1ccc(N)nc1` [Example B-65], for which the response in assay [3] was half-maximal at 0.218 µM (EC50).
In turn, `CCc1ncnc(N2CCc3cc(OC)c(OC)cc3C2)c1C#Cc1ccc(N)nc1` [Example H-18] yielded an IC50 in assay [1] of 0.083 µM. Besides, the “IC50 PI3Ka” value in assay [2] worked out at 0.043 µM.
`CCc1ncnc(N2CCNC(=O)C2)c1C#Cc1ccc(N)nc1` [Example H-5] gave an IC50 in assay [1] of 0.091 µM. The “IC50 PI3Ka” value in assay [2] is 0.745 µM.
`CCc1ncnc(N2CCc3c(ncnc3N3CCOCC3)C2)c1C#Cc1ccc(N)nc1` [Example H-27] returned a half-inhibitory concentration (IC50) in assay [1] of 0.139 µM. Moreover, the “IC50 PI3Ka” value in assay [2] stood at 0.103 µM.
In assay [3], `CCOC1CCN(c2ncnc(CC)c2C#Cc2ccc(N)nc2)CC1` [Example B-46] showed an EC50 of 0.072 µM.
In turn, `CCc1ncnc(N2CCN(CCCS(C)(=O)=O)CC2)c1C#Cc1ccc(N)nc1` [Example H-15] had an IC50 in assay [1] of 0.025 µM. Also, in assay [2], the “IC50 PI3Ka” value came to 0.108 µM.
For `CCc1ncnc(N2CCN(c3ccccc3C(F)(F)F)CC2)c1C#Cc1ccc(N)nc1` [Example H-19], in that order: 2 µM and 1.861 µM.
Molecule `CCc1ncnc(N2CCN(C3COC3)CC2)c1C#Cc1ccc(N)nc1` [Example H-26] had a half-inhibitory concentration (IC50) in assay [1] of 0.047 µM. For the same molecule, in assay [2], the “IC50 PI3Ka” value was found to be 0.105 µM.
With `CCc1ncnc(N2CCN(C3CCOCC3)CC2)c1C#Cc1ccc(N)nc1` [Example H-12], the half-maximal inhibitory concentration (IC50) in assay [1] was 0.077 µM. Moreover, the “IC50 PI3Ka” value in assay [2] stood at 0.141 µM.
`CCc1ncnc(N2CCn3c(COC)nnc3C2)c1C#Cc1ccc(N)nc1` [Example H-8] gave a half-inhibitory concentration (IC50) in assay [1] of 0.127 µM. Also, in assay [2], the “IC50 PI3Ka” value came out at 0.185 µM.
`CCc1ncnc(N2CCN(Cc3nc(C)c(C)o3)CC2)c1C#Cc1ccc(N)nc1` [Example H-28]: in assay [1], the concentration for half-maximal inhibition (IC50) turned out to be 0.258 µM. Further, the “IC50 PI3Ka” value in assay [2] came to 0.232 µM.
For `CCc1ncnc(N2CCC3(CCCCC3)CC2)c1C#Cc1ccc(N)nc1` [Example H-3], in that order: 0.333 µM and 0.369 µM.
In assay [1], `CCc1ncnc(N2CCC(O)(CC)CC2)c1C#Cc1ccc(N)nc1` [Example B-36] showed a half-maximal inhibitory concentration (IC50) of 0.005 µM. This molecule also had a 50% effective concentration (EC50) in assay [3] of 0.02 µM.

The values above are taken from patent US8618111B2, “5-alkynyl-pyrimidines” (Boehringer Ingelheim International GmbH, priority 2010, dated 2013).
